# Literature values as cited in PubChem BioAssay AID1259409 (Chemical Carcinogenesis Research Information System (CCRIS), 2018).
# “And” between values parts separate entries of the source, which are not always exact repeats. Equal entries are not always repeated.
# Test system: rodent chemically induced tumor inhibition, incidence and multiplicity
# Test: CCRIS tumor inhibitor studies
smiles,measurement,setting,value
Clc1ccc(COC(Cn2ccnc2)c2ccc(Cl)cc2Cl)c(Cl)c1 (configuration not stated),"tumour outcome (control, treated, inhibition, significance)","Carcinogen: 7,12-DIMETHYLBENZ[A]ANTHRACENE, 57-97-6, Dose [Inhibitor]: 0, 1000 PPM IN DIET FOR DURATION OF STUDY BEGINNING 1 WK PRIOR TO CARCINOGEN DOSE (STUDY DURATION: 107 D), Route [Inhibitor]: ORAL, Species: RAT, Strain/Sex: SPRAGUE-DAWLEY/FEMALE, Target Tissue: Type of Lesion: MAMMARY GLAND: ADENOCARCINOMA, Dose [Carcinogen]: 12 MG ONCE, Promoter: NONE USED","96%, 84%, 13%, not significant"
same,"tumour outcome (control, treated, inhibition, significance)","Carcinogen: 7,12-DIMETHYLBENZ[A]ANTHRACENE, 57-97-6, Dose [Inhibitor]: 0, 2000 PPM IN DIET FOR DURATION OF STUDY BEGINNING 1 WK PRIOR TO CARCINOGEN DOSE (STUDY DURATION: 107 D), Route [Inhibitor]: ORAL, Species: RAT, Strain/Sex: SPRAGUE-DAWLEY/FEMALE, Target Tissue: Type of Lesion: MAMMARY GLAND: ADENOCARCINOMA, Dose [Carcinogen]: 12 MG ONCE, Promoter: NONE USED","96%, 68%, 29%, not calculated"
C=CC[C@@H]1/C=C(\C)C[C@H](C)C[C@H](OC)[C@H]2O[C@@](O)(C(=O)C(=O)N3CCCC[C@H]3C(=O)O[C@H](/C(C)=C/[C@@H]3CC[C@@H](O)[C@H](OC)C3)[C@H](C)[C@@H](O)CC1=O)[C@H](C)C[C@@H]2OC,"tumour outcome (control, treated, inhibition, significance)","Carcinogen: 7,12-DIMETHYLBENZ[A]ANTHRACENE : 57-97-6, Dose [Inhibitor]: 0, 1 UMOL APPLIED 5 MIN PRIOR TO EACH PROMOTER DOSE FOR 22 WK BEGINNING 10 D POST CARCINOGEN DOSE (STUDY DURATION: 23 WK, Route [Inhibitor]: DERMAL, Species: MOUSE, Strain/Sex: CD-1/FEMALE, Target Tissue: Type of Lesion: SKIN: PAPILLOMA, Dose [Carcinogen]: 200 NMOL ONCE, Promoter: 12-O-TETRADECANOYLPHORBOL-13-ACETATE, 16561-29-8","100%, 15%, 85%, not calculated"
same,"tumour outcome (control, treated, inhibition, significance)","Carcinogen: 7,12-DIMETHYLBENZ[A]ANTHRACENE, 57-97-6, Dose [Inhibitor]: 0, 0.1 UMOL APPLIED 15 MIN PRIOR TO EACH PROMOTER DOSE FOR 22 WK BEGINNING 10 D POST CARCINOGEN DOSE (STUDY DURATION: 23, Route [Inhibitor]: DERMAL, Species: (20,20)/(20,20), Strain/Sex: CD-1/FEMALE, Target Tissue: Type of Lesion: SKIN: PAPILLOMA, Dose [Carcinogen]: 200 NMOL ONCE, Promoter: 12-O-TETRADECANOYLPHORBOL-13-ACETATE, 16561-29-8","100%, 38%, 62%, not calculated"
CC[C@H](C)/C=C/C1=CC2=C(Cl)C(=O)[C@@]3(C)OC(=O)C(C(=O)[C@@H](C)[C@@H](C)O)=C3C2=CO1,"tumour outcome (control, treated, inhibition, significance)","Carcinogen: 7,12-DIMETHYLBENZ[A]ANTHRACENE, 57-97-6, Dose [Inhibitor]: 0, 2 UMOL 2/WK FOR 18 WK APPLIED 30 MIN PRIOR TO EACH PROMOTER DOSE BEGINNING 1 WK POST CARCINOGEN DOSE (STUDY DURATION:, Route [Inhibitor]: DERMAL, Species: MOUSE, Strain/Sex: ICR/FEMALE, Target Tissue: Type of Lesion: SKIN: PAPILLOMA, Dose [Carcinogen]: 50 UG ONCE, Promoter: 12-O-TETRADECANOYLPHORBOL-13-ACETATE, 16561-29-8","100%, 33%, 67%, not calculated"
O=c1ccc2ccc(O)cc2o1,"tumour outcome (control, treated, inhibition, significance)","Carcinogen: 7,12-DIMETHYLBENZ[A]ANTHRACENE, 57-97-6, Dose [Inhibitor]: 0.034 MMOL/G IN DIET FOR 8 D BEGINNING 7 D PRIOR TO CARCINOGEN DOSE (STUDY DURATION: 23 WK), Route [Inhibitor]: ORAL, Species: RAT, Strain/Sex: SPRAGUE-DAWLEY/FEMALE, Target Tissue: Type of Lesion: MAMMARY GLAND: TUMOR, Dose [Carcinogen]: 12 MG IN 1.0 ML OLIVE OIL ONCE, Promoter: NONE USED","93%, 93%, 0%, not significant"
same,"tumour outcome (control, treated, inhibition, significance)","Carcinogen: BENZO[A]PYRENE, 50-32-8, Dose [Inhibitor]: 0.034 MMOL/G IN DIET FOR 5 WK BEGINNING 1 WK PRIOR TO FIRST CARCINOGEN DOSE (STUDY DURATION: 21 WK), Route [Inhibitor]: ORAL, Species: MOUSE, Strain/Sex: ICR/FEMALE, Target Tissue: Type of Lesion: FORESTOMACH: TUMOR, Dose [Carcinogen]: 1 MG IN 0.2 ML CORN OIL 2/WK FOR 4 WK, Promoter: NONE USED","100%, 95%, 5%, not significant and 90%, 95%,-5%, not significant and 95%, 100%, -5%, not significant"
same,"tumour outcome (control, treated, inhibition, significance)","Carcinogen: BENZO[A]PYRENE, 50-32-8, Dose [Inhibitor]: 0.068 MMOL/G IN DIET FOR 5 WK BEGINNING 1 WK PRIOR TO FIRST CARCINOGEN DOSE (STUDY DURATION: 21 WK), Route [Inhibitor]: ORAL, Species: MOUSE, Strain/Sex: ICR/FEMALE, Target Tissue: Type of Lesion: FORESTOMACH: TUMOR, Dose [Carcinogen]: 1 MG IN 0.2 ML CORN OIL 2/WK FOR 4 WK, Promoter: NONE USED","100%, 95%, 5%, not significant"
C[C@H]1CCCC(=O)CCC/C=C/c2cc(O)cc(O)c2C(=O)O1,"tumour outcome (control, treated, inhibition, significance)","Carcinogen: 7,12-DIMETHYLBENZ[A]ANTHRACENE [57-97-6], Dose [Inhibitor]: 20 UG/L IN 0.05 ML PEANUT OIL 2X/WK FOR 2 WK BEGINNING AT 7 D OF AGE (STUDY DURATION: 24 WK), Route [Inhibitor]: SUBCUTANEOUS, Species: RAT, Strain/Sex: SPRAGUE-DAWLEY/FEMALE, Target Tissue: Type of Lesion: MAMMARY GLAND: TUMOR, Dose [Carcinogen]: 10 MG IN 1 ML PEANUT OIL ONCE AT 45 D OF AGE (STUDY DURATION: 24 WK), Promoter: NONE","17/30 (57%), 9/30 (30%), 47%, p<0.018"
CCCCCC(O)CC(=O)CCC1CCC(O)C(OC)C1 (configuration not stated),"tumour outcome (control, treated, inhibition, significance)","Carcinogen: AZOXYMETHANE, 25843-45-2, Dose [Inhibitor]: 0, 0.02% IN DIET IN WK 1-3 OF STUDY FOLLOWED BY BASAL DIET FOR DURATION OF STUDY (STUDY DURATION: 1 YR), Route [Inhibitor]: ORAL, Species: RAT, Strain/Sex: F344/MALE, Target Tissue: Type of Lesion: LARGE INTESTINE: ADENOCARCINOMA, Dose [Carcinogen]: 15 MG/KG BW 1/WK IN WK 1 AND 2 OF STUDY, Promoter: NONE USED","13/27 (48%), 3/17 (18%), 63%, not calculated"
same,"tumour outcome (control, treated, inhibition, significance)","Carcinogen: AZOXYMETHANE, 25843-45-2, Dose [Inhibitor]: 0, 0.02% IN DIET IN WK 1-3 OF STUDY FOLLOWED BY BASAL DIET FOR DURATION OF STUDY (STUDY DURATION: 1 YR), Route [Inhibitor]: ORAL, Species: RAT, Strain/Sex: F344/MALE, Target Tissue: Type of Lesion: LARGE INTESTINE: ADENOMA, Dose [Carcinogen]: 15 MG/KG BW 1/WK IN WK 1 AND 2 OF STUDY, Promoter: NONE USED","6/27 (22%), 5/17 (29%), -32%, not calculated"
same,"tumour outcome (control, treated, inhibition, significance)","Carcinogen: AZOXYMETHANE, 25843-45-2, Dose [Inhibitor]: 0, 0.02% IN DIET IN WK 1-3 OF STUDY FOLLOWED BY BASAL DIET FOR DURATION OF STUDY (STUDY DURATION: 1 YR), Route [Inhibitor]: ORAL, Species: RAT, Strain/Sex: F344/MALE, Target Tissue: Type of Lesion: SMALL INTESTINE: ADENOCARCINOMA, Dose [Carcinogen]: 15 MG/KG BW 1/WK IN WK 1 AND 2 OF STUDY, Promoter: NONE USED","6/27 (22%), 0/17 (0%), 100%, not calculated"
CCCCNC(=O)\C=C(C)/C=C/C=C(C)/C=C/C1=C(C)CCCC1(C)C,"tumour outcome (control, treated, inhibition, significance)","Carcinogen: N-BUTYL-N-(4-HYDROXYBUTYL)NITROSAMINE, 3817-11-6, Dose [Inhibitor]: 1.5 MMOL/KG IN DIET FOR 133 D STARTING 1 WK AFTER THE LAST CARCINOGEN DOSE ( STUDY DURATION: 190 D), Route [Inhibitor]: ORAL, Species: MOUSE, Strain/Sex: BDF/MALE, Target Tissue: Type of Lesion: URINARY BLADDER: TRANSITIONAL CELL CARCINOMA, Dose [Carcinogen]: 7.5 MG 1/WK FOR 8 WK, Promoter: NONE USED","21/100 (21%), 19/97 (20%), 5%, not significant"
CC(C)=CCC/C(C)=C/Cc1cc2ccc(=O)oc2cc1O,"tumour outcome (control, treated, inhibition, significance)","Carcinogen: 7,12-DIMETHYLBENZ[A]ANTHRACENE, 57-97-6, Dose [Inhibitor]: 0, 400 NMOL ONCE APPLIED 5 MIN PRIOR TO CARCINOGEN DOSE (STUDY DURATION: 25 WK), Route [Inhibitor]: DERMAL, Species: MOUSE, Strain/Sex: SENCAR, Target Tissue: Type of Lesion: SKIN: PAPILLOMA, Dose [Carcinogen]: 10 NMOL ONCE, Promoter: 12-O-TETRADECANOYLPHORBOL-13-ACETATE, 16561-29-8","96%, 96%, 0%, not significant"
same,"tumour outcome (control, treated, inhibition, significance)","Carcinogen: 7-12-DIMETHYLBENZ[A]ANTHRACENE, 57-97-6, Dose [Inhibitor]: 0, 1200 NMOL ONCE APPLIED 5 MIN PRIOR TO CARCINOGEN DOSE (STUDY DURATION: 25 WK), Route [Inhibitor]: DERMAL, Species: MOUSE, Strain/Sex: SENCAR, Target Tissue: Type of Lesion: SKIN: PAPILLOMA, Dose [Carcinogen]: 10 NMOL ONCE, Promoter: 12-O-TETRADECANOYLPHORBOL-13-ACETATE, 16561-29-8","93%, 96%, -3%, not significant"
same,"tumour outcome (control, treated, inhibition, significance)","Carcinogen: BENZO[A]PYRENE, 50-32-8, Dose [Inhibitor]: 0, 400 NMOL ONCE APPLIED 5 MIN PRIOR TO CARCINOGEN DOSE (STUDY DURATION: 25 WK), Route [Inhibitor]: DERMAL, Species: MOUSE, Strain/Sex: SENCAR, Target Tissue: Type of Lesion: SKIN: PAPILLOMA, Dose [Carcinogen]: 200 NMOL ONCE, Promoter: 12-O-TETRADECANOYLPHORBOL-13-ACETATE, 16561-29-8","91%, 91%, 0%, not significant"
same,"tumour outcome (control, treated, inhibition, significance)","Carcinogen: BENZO[A]PYRENE, 50-32-8, Dose [Inhibitor]: 0, 1200 NMOL ONCE APPLIED 5 MIN PRIOR TO CARCINOGEN DOSE (STUDY DURATION: 25 WK), Route [Inhibitor]: DERMAL, Species: MOUSE, Strain/Sex: SENCAR, Target Tissue: Type of Lesion: SKIN: PAPILLOMA, Dose [Carcinogen]: 200 NMOL ONCE, Promoter: 12-O-TETRADECANOYLPHORBOL-13-ACETATE, 16561-29-8","92%, 93%, -1%, not significant"
